From US20230053540A1, “TREATMENT OF LIVER INJURY” (Massachusetts Institute of Technology, priority 2019, published 2023)

System: hepatocytes
Assay: Seq-Well scRNA-Seq of hepatocytes after APAP overdose (signature scores, DEG vs untreated)
Type: in vivo, mouse
Conditions: A6

CC(=O)Nc1ccc(O)cc1 [APAP, acetaminophen]
2-Mar pct.1: 0.611
2010003K11Rik pct.1: 0.396
2810007J24Rik pct.1: 0.675
8430408G22Rik pct.1: 0.041
Aadac pct.1: 0.673
Aass pct.1: 0.747
Abca1 pct.1: 0.604
Abhd2 pct.1: 0.37
Acaa1b pct.1: 0.752
Adck3 pct.1: 0.363
Adh1 pct.1: 0.74
Adh4 pct.1: 0.165
Agpat9 pct.1: 0.277
Akr1c6 pct.1: 0.675
Akr1c20 pct.1: 0.248
Alb pct.1: 1
Aldh1a1 pct.1: 0.862
Aldh3a2 pct.1: 0.064
Aldh8a1 pct.1: 0.418
Ang pct.1: 0.315
Apoa2 pct.1: 0.993
Apoa4 pct.1: 0.721
Apob pct.1: 0.99
Apoc1 pct.1: 0.962
Apoc3 pct.1: 0.869
Apoe pct.1: 1
Apol7a pct.1: 0.072
Arhgef12 pct.1: 0.578
Arl4d pct.1: 0.112
Asl pct.1: 0.826
Atp2a2 pct.1: 0.616
Atp5e pct.1: 0.506
Atp5h pct.1: 0.377
B4galt5 pct.1: 0.332
Bach1 pct.1: 0.461
Bcl2l1 pct.1: 0.501
Btg2 pct.1: 0.549
C8g pct.1: 0.673
C230081A13Rik pct.1: 0.279
Car3 pct.1: 0.854
Ccl6 pct.1: 0.274
Cd5l pct.1: 0.21
Cd14 pct.1: 0.153
Cd302 pct.1: 0.649
Cdkn1a pct.1: 0.702
Cers6 pct.1: 0.332
Ces3a pct.1: 0.831
Chchd2 pct.1: 0.718
Chka pct.1: 0.716
Cidec pct.1: 0.253
Clec4f pct.1: 0.339
Clqb pct.1: 0.234
Cltc pct.1: 0.661
Cml1 pct.1: 0.475
Cox4i1 pct.1: 0.869
Cox6c pct.1: 0.558
Cox7a2 pct.1: 0.456
Cox7b pct.1: 0.632
Creb3l2 pct.1: 0.329
Ctsl pct.1: 0.878
Ctss pct.1: 0.212
Cxadr pct.1: 0.606
Cyb5 pct.1: 0.916
Cyp4a14 pct.1: 0.776
D10Wsu102e pct.1: 0.37
Dbi pct.1: 0.819
Ddt pct.1: 0.539
Ddx3x pct.1: 0.692
Ddx5 pct.1: 0.685
Dusp5 pct.1: 0.196
Dusp6 pct.1: 0.482
Efhd2 pct.1: 0.468
Eif1a pct.1: 0.599
Eif4g2 pct.1: 0.757
Epas1 pct.1: 0.604
Etf1 pct.1: 0.606
Ets2 pct.1: 0.415
Fabp1 pct.1: 0.971
Fabp2 pct.1: 0.315
Fam134b pct.1: 0.678
Fdx1 pct.1: 0.305
Fga pct.1: 0.986
Fgb pct.1: 0.995
Fgg pct.1: 0.986
Fkbp5 pct.1: 0.415
Fxyd5 pct.1: 0.138
G6pc pct.1: 0.313
Gamt pct.1: 0.277
Gclc pct.1: 0.962
Gcnt2 pct.1: 0.372
Gjb2 pct.1: 0.678
Glyat pct.1: 0.468
Gm13775 pct.1: 0.284
Gm15564 pct.1: 0.983
Gm24601 pct.1: 0.241
Gm26924 pct.1: 1
Gn13 pct.1: 0.501
Gpt2 pct.1: 0.764
Gpx1 pct.1: 0.969
Grn pct.1: 0.582
Gsta1 pct.1: 0.32
Gulo pct.1: 0.076
H3f3b pct.1: 0.613
Haao pct.1: 0.621
Hacl1 pct.1: 0.489
Hagh pct.1: 0.573
Hba-a1 pct.1: 0.165
Hba-a2 pct.1: 0.131
Hbb-bs pct.1: 0.537
Hbb-bt pct.1: 0.246
Hebp1 pct.1: 0.43
Hes6 pct.1: 0.076
Hgd pct.1: 0.511
Hif1a pct.1: 0.427
Hilpda pct.1: 0.403
Hint1 pct.1: 0.57
Hmox1 pct.1: 0.558
Hnf4a pct.1: 0.835
Hpd pct.1: 0.883
Hsd3b5 pct.1: 0.062
Hsd17b13 pct.1: 0.864
Hspb8 pct.1: 0.709
Iigp1 pct.1: 0.78
Il1b pct.1: 0.236
Il1r1 pct.1: 0.683
Insig2 pct.1: 0.854
Itih2 pct.1: 0.893
Jak1 pct.1: 0.554
Jmjd1c pct.1: 0.47
Klf6 pct.1: 0.382
Krt8 pct.1: 0.826
Krt18 pct.1: 0.864
Lactb2 pct.1: 0.47
Lars2 pct.1: 1
Lifr pct.1: 0.389
Lpgat1 pct.1: 0.618
Lpin2 pct.1: 0.745
Lrg1 pct.1: 0.783
Lrrc58 pct.1: 0.711
Lyz2 pct.1: 0.234
Man2a1 pct.1: 0.671
Mat1a pct.1: 0.986
Mbl1 pct.1: 0.382
Mcm10 pct.1: 0.079
Mfsd2a pct.1: 0.465
Mgst1 pct.1: 0.938
Mmp8 pct.1: 0.136
Mrap pct.1: 0.606
Msrb1 pct.1: 0.558
Mt1 pct.1: 0.981
Mt2 pct.1: 0.938
Mthfd2 pct.1: 0.205
Mup3 pct.1: 1
Mup4 pct.1: 0.621
Mup5 pct.1: 0.475
Mup6 pct.1: 0.706
Mup7 pct.1: 0.831
Mup9 pct.1: 0.489
Mup11 pct.1: 0.511
Mup12 pct.1: 0.32
Mup15 pct.1: 0.076
Mup16 pct.1: 0.334
Mup17 pct.1: 0.871
Mup18 pct.1: 0.728
Mup19 pct.1: 0.759
Mup21 pct.1: 0.58
Myh9 pct.1: 0.718
Myo1e pct.1: 0.475
Ndufa4 pct.1: 0.656
Ndufa6 pct.1: 0.506
Nid1 pct.1: 0.229
Nop58 pct.1: 0.492
Nudt7 pct.1: 0.279
Oaf pct.1: 0.437
Oat pct.1: 0.05
Pah pct.1: 0.687
Pcbd1 pct.1: 0.535
Pck1 pct.1: 0.814
Phlda1 pct.1: 0.494
Picalm pct.1: 0.647
Plin2 pct.1: 0.943
Plscr1 pct.1: 0.329
Pon1 pct.1: 0.685
Ppib pct.1: 0.463
Ppl pct.1: 0.47
Ppm1k pct.1: 0.15
Prdx1 pct.1: 0.742
Psat1 pct.1: 0.229
Psen2 pct.1: 0.384
Ptprc pct.1: 0.153
Ranbp2 pct.1: 0.566
Rarres2 pct.1: 0.678
Rcan1 pct.1: 0.425
Rdh7 pct.1: 0.862
Rell1 pct.1: 0.375
Retnlg pct.1: 0.129
Retsat pct.1: 0.845
Rnase4 pct.1: 0.563
Rock2 pct.1: 0.425
Rora pct.1: 0.549
Rps27l pct.1: 0.484
S100a8 pct.1: 0.353
